The values below are quoted from earlier work in patent publication US6846837B2, “Topical administration of basic antifungal compositions to treat fungal infections of the nails” (priority 2002, dated 2005).

For data set [1] the following is noted: forms Ca(OH)2.
Test in data set [2]: not given
The source holds these as a separate data set.

The subject of the next data set is onychomycosis. Conditions: standard oral treatment.

Consider `[O]=[Ca]` [Calcium oxide], for which the solubility in water entry in data set [1] is on record as “Soluble in water, Form Ca(OH)2”. With `CNC` [Dimethylamine], the pKa is reported as 10.73. With `CC(C)CCN` [Isopentylamine], the pKa entry is “pKa = 10.6”. As for `O=P([O-])([O-])O.[K+].[K+]` [Potassium phosphate, dibasic], the “pH of Aqueous Solution, in words (alkalinity)” value in data set [2] is “Aqueous solution is slightly alkaline”. Regarding `O=B[O-].[Na+]` [Sodium metaborate], the “pH of Aqueous Solution, in words (alkalinity)” value in data set [2] was “Strongly alkaline”. For the compound `CN(C)C` [Trimethylamine], the pKa was 9.81. As for `CN(C/C=C/C#CC(C)(C)C)Cc1cccc2ccccc12` [terbinafine], the “disease-free nails, share of cases” value with onychomycosis is given as 35-50%.

As usually defined, the pKa is the pH at which an ionisable group is half protonated.
